Experimental findings from US20240109900A1, “AZABICYCLIC SHP2 INHIBITORS” (IRBM S.P.A., priority 2021, published 2024) are described below.

In experiment [1] the target is SHP-2 enzyme (Met1-Leu525) (Homo sapiens (Human), UniProt Q06124). The experiment in a line: SHP2 inhibition enzymatic assay. It is filed as biochemical. The settings on record: 0.5 nM SHP-2 activated by 500 nM IRS1 peptide, 75 μM DiFMUP substrate; read-out: SHP2wt-IC50. The method in brief: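 Compounds were preincubated 30 min with 0.5 nM SHP-2 (Met1-Leu525) plus 500 nM IRS1 activating peptide (pH 7.2 HEPES, 5 mM DTT), then 75 μM DiFMUP substrate reacted 30 min at room temperature. After bpV quench, DiFMUP fluorescence gave % inhibition; four-parameter logistic fit yielded IC50.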
Sequence of SHP-2 enzyme (Met1-Leu525) (Q06124 1-525): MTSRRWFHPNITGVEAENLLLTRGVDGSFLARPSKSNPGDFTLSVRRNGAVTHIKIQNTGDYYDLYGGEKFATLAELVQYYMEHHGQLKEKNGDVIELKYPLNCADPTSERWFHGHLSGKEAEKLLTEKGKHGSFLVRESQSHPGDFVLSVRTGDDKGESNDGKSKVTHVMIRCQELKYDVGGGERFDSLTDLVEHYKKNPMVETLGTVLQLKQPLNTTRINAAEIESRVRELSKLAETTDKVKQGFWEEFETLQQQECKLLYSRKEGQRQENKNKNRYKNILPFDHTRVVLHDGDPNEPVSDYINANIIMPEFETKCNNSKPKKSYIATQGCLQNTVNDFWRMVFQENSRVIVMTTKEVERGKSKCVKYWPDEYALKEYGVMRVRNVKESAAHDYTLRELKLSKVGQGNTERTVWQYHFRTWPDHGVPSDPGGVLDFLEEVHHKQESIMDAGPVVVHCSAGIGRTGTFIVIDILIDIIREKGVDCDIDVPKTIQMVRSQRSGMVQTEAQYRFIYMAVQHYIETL

The subject of experiment [2] is ERK phosphorylation in KYSE-520 cells. The experiment in a line: Phospho-ERK cellular assay. It is filed as cell-based. The settings on record: Homo sapiens, KYSE-520, 2 h, KYSE-520 cells, 2 h at 37° C., phospho-ERK1/2 (Thr202/Tyr204) TR-FRET; read-out: PERK IC50. The method in brief:
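TR-FRET read-out of ERK1/2 Thr202/Tyr204 phosphorylation was taken after overnight antibody incubation at room temperature. Before that, KYSE-520 cells were treated 2 h at 37 °C with compound dilutions and lysed 30 min. Percent inhibition relative to vehicle and cell-free wells was fitted four-parametrically to give IC50.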
For orientation: Time-resolved FRET reads energy transfer from a long-lived donor to a nearby acceptor.

The IC50 is the concentration that inhibits the measured activity by half. As to `NC[C@]1(c2ccccc2F)[C@@H]2CCN(c3cnc4c(-c5ccnc(-c6cnco6)c5Cl)n[nH]c4n3)C[C@@H]21` [Example 263, ((1S,6R,7R)-3-(3-(3-chloro-2-(oxazol-5-yl)pyridin-4-yl)-1H-pyrazolo[3,4-b]pyrazin-6-yl)-7-(2-fluorophenyl)-3-azabicyclo[4.1.0]heptan-7-yl)methanamine], the 50% inhibitory concentration (IC50) in experiment [1] is < 0.5 µM; in experiment [2], < 1 µM.
As for `NC[C@]1(c2ccccc2F)[C@@H]2CCN(c3cnc4c(-c5ccc(-c6ncco6)cc5Cl)n[nH]c4n3)C[C@@H]21` [Example 264, ((1S,6R,7R)-3-(3-(2-chloro-4-(oxazol-2-yl)phenyl)-1H-pyrazolo[3,4-b]pyrazin-6-yl)-7-(2-fluorophenyl)-3-azabicyclo[4.1.0]heptan-7-yl)methanamine], the figures for the IC50 in experiment [1] and in experiment [2] were < 0.5 µM and < 1 µM, respectively.
The matching figures for `Cn1ccc(-c2nccc(-c3n[nH]c4nc(N5CC[C@@H]6[C@H](C5)[C@@]6(CN)c5ccccc5F)cnc34)c2Cl)n1` [Example 265, ((1S,6R,7R)-3-(3-(3-chloro-2-(1-methyl-1H-pyrazol-3-yl)pyridin-4-yl)-1H-pyrazolo[3,4-b]pyrazin-6-yl)-7-(2-fluorophenyl)-3-azabicyclo[4.1.0]heptan-7-yl)methanamine]: < 0.5 µM and < 1 µM.
The corresponding values for `NC[C@]1(c2cccc(F)c2F)[C@@H]2CCN(c3cnc4c(-c5ccc(C(=O)O)c6ncccc56)n[nH]c4n3)C[C@@H]21` [Example 266, 5-(6-((1S,6R,7R)-7-(aminomethyl)-7-(2,3-difluorophenyl)-3-azabicyclo[4.1.0]heptan-3-yl)-1H-pyrazolo[3,4-b]pyrazin-3-yl)quinoline-8-carboxylic acid] are < 0.5 µM and < 1 µM.
The matching figures for `CNC(=O)c1ccc(-c2n[nH]c3nc(N4CC[C@@H]5[C@H](C4)[C@@]5(CN)c4cccc(F)c4F)cnc23)c2cccnc12` [Example 267, 5-(6-((1S,6R,7R)-7-(aminomethyl)-7-(2,3-difluorophenyl)-3-azabicyclo[4.1.0]heptan-3-yl)-1H-pyrazolo[3,4-b]pyrazin-3-yl)-N-methylquinoline-8-carboxamide]: < 0.5 µM and < 1 µM.
Consider `NC[C@]1(c2ccccc2F)[C@@H]2CCN(c3cnc4c(-c5cc[nH]c(=O)c5Cl)n[nH]c4n3)C[C@@H]21` [Example 268, 4-(6-((1S,6R,7R)-7-(aminomethyl)-7-(2-fluorophenyl)-3-azabicyclo[4.1.0]heptan-3-yl)-1H-pyrazolo[3,4-b]pyrazin-3-yl)-3-chloropyridin-2(1H)-one], for which the IC50 in experiment [1] was < 0.5 µM; in experiment [2], < 1 µM.
The corresponding values for `Cn1ccc(-c2n[nH]c3nc(N4CC[C@@H]5[C@H](C4)[C@@]5(CN)c4ccccc4F)cnc23)c(Cl)c1=O` [Example 269, 4-(6-((1S,6R,7R)-7-(aminomethyl)-7-(2-fluorophenyl)-3-azabicyclo[4.1.0]heptan-3-yl)-1H-pyrazolo[3,4-b]pyrazin-3-yl)-3-chloro-1-methylpyridin-2(1H)-one] are < 0.5 µM and > 5 µM.
The matching figures for `NC[C@]1(c2ccccc2F)[C@@H]2CCN(c3cnc4c(N5CC6(CCC6)c6ncccc65)n[nH]c4n3)C[C@@H]21` [Example 270, ((1S,6R,7R)-7-(2-fluorophenyl)-3-(3-(spiro[cyclobutane-1,3′-pyrrolo[3,2-b]pyridin]-1′(2′H)-yl)-1H-pyrazolo[3,4-b]pyrazin-6-yl)-3-azabicyclo[4.1.0]heptan-7-yl)methanamine]: < 0.5 µM and < 1 µM.
The corresponding values for `NC[C@]1(c2ccccc2F)[C@@H]2CCN(c3cnc4c(-c5ccc(C(=O)O)cc5Cl)n[nH]c4n3)C[C@@H]21` [Example 271, 4-(6-((1S,6R,7R)-7-(aminomethyl)-7-(2-fluorophenyl)-3-azabicyclo[4.1.0]heptan-3-yl)-1H-pyrazolo[3,4-b]pyrazin-3-yl)-3-chlorobenzoic acid] are < 0.5 µM and > 5 µM.
